Key:
[1] = system: Serratia marcescens (bacterium 1 isolated from a food factory); settings: preliminary test, sensitization time 5 minutes
Experimental: The following sample bacterium (i) isolated from a food factory was cultured in a BHI bouillon medium at 30° C. for 24 hours. A 0.03 ml of a liquid obtained by diluting the cultured bacterium with a physiological saline solution to the concentration on the order of 10^6 cfu/ml was mixed with respective 3 ml of aqueous solutions, each of which was obtained by diluting an aqueous solution of the above solid germicidal composition (1.0% by weight) with sterile water so that the concentration of the solid germicidal composition would be 0.01, 0.02 and 0.04% by weight, respectively. The obtained mixture was then left at 25° C. for 5 minutes. After sensitization time elapsed, stirring was carried out again. One platinum loop of each mixture was taken and inoculated in 10 ml of a BHI bouillon medium. The medium was incubated at 30° C. for 48 hours. A BHI bouillon medium without inoculation of the bacterium was used as a reference, and turbidity of the medium was compared with the reference by visual inspection to determine the germicidal effect of the aqueous solution of the solid germicidal composition on the bacterium.
Sample Bacterium (i): Serratia marcescens (Bacterium 1 Isolated from a Food Factory)

[2] = system: Serratia marcescens (bacterium 2 isolated from a food factory); assay: Test for inhibition of drug resistance development (repeated MIC, broth microdilution); type: cell-based; settings: sample bacteria (iii) and (iv), eight MIC rounds, as compared to DDAC
Experimental: According to the standard method (broth microdilution method) of Japanese Society of Chemotherapy, minimal inhibitory concentration (MIC) was continuously measured. The compositions shown in Table 7 were diluted with sterile water to obtain drug solutions with a concentration of the composition of 0.007 to 1.792% by weight, and a nutrient broth medium adjusted to a concentration twice as high as the specified concentration (manufactured by Eiken Chemical Co., Ltd., normal bouillon medium ‘Eiken’ E-MC35) was added thereto in an amount equal to the drug solution. The obtained mixture was stirred and then dispensed to a microtiter plate (96 well) in an amount of 150 μl/well. […] The diluted culture was then seeded in an amount of 7.5 μl/well to the microtiter plate containing the medium prepared as described above. The plate was incubated in a constant temperature oven at 30° C. for 48 hours, the growth of the bacterium was checked by visual inspection, and MIC was determined. […] Using the diluted culture, MIC was determined again in the same manner as described above. MIC was determined eight times in total by repeating the above procedure, and changes in MIC were confirmed.
Sample Bacterium (iii): Serratia marcescens (Bacterium 2 Isolated from a Food Factory)

[3] = cited from earlier work

Row | SMILES | solubility in water at 20° C. [3] | also measured
1 | CCCCCCCCCC[N+](C)(C)CCCCCCCCCC.[Cl-] [didecyl dimethyl ammonium chloride] |  | maximum concentration up to which proliferation of sample bacterium (i) was not inhibited [1]: > 80 ppm
2 | CCCCCCCCCC[n+]1ccn(CCCCCCCCCCn2cc[n+](CCCCCCCCCC)c2C)c1C.[Cl-].[Cl-] [1,10-di(3-decyl-2-methylimidazolium)decane dichloride] |  | development of drug-resistant microorganisms [2]: hardly developed
3 | O=C(O)CC(O)C(=O)O (stereo not shown) [Malic acid] | (solubility 55.8%) | 
4 | O=C(O)/C=C/C(=O)O [Fumaric acid] | (solubility 0.51%) | 

Reference: US8697701B2, “Solid germicidal composition and disinfection method” (Ueno Fine Chemicals Industry, Ltd., priority 2012, dated 2014)
